Experimental data: publication PMC12661293 (RSC Advances, 2025)

What was measured:
α-glucosidase = α-glucosidase (Saccharomyces cerevisiae, UniProt P53341); assay: In vitro α-glucosidase inhibitory assay; format: biochemical; conditions: for inhibition at 10 µM: read-out: %Inhibition at 10 µM; for inhibition at 40 µM: read-out: %Inhibition at 40 µM; for inhibition at 100 µM: read-out: %Inhibition at 100 µM; for inhibition at 140 µM: read-out: %Inhibition at 140 µM; for inhibition at 350 µM: read-out: %Inhibition at 350 µM; for inhibition at 400 µM: read-out: %Inhibition at 400 µM; for inhibition at 500 µM: read-out: %Inhibition at 500 µM
α-amylase = molecular target: T1, α-amylase (Sus scrofa, UniProt P00690); assay: In vitro α-amylase inhibitory assay; format: biochemical, porcine; conditions: for inhibition at 10 µM: read-out: %Inhibition at 10 µM; for inhibition at 40 µM: read-out: %Inhibition at 40 µM; for inhibition at 80 µM: read-out: %Inhibition at 80 µM; for inhibition at 140 µM: read-out: %Inhibition at 140 µM; for inhibition at 260 µM: read-out: %Inhibition at 260 µM; for inhibition at 400 µM: read-out: %Inhibition at 400 µM; for inhibition at 500 µM: read-out: %Inhibition at 500 µM
T1 sequence (P00690 16-511): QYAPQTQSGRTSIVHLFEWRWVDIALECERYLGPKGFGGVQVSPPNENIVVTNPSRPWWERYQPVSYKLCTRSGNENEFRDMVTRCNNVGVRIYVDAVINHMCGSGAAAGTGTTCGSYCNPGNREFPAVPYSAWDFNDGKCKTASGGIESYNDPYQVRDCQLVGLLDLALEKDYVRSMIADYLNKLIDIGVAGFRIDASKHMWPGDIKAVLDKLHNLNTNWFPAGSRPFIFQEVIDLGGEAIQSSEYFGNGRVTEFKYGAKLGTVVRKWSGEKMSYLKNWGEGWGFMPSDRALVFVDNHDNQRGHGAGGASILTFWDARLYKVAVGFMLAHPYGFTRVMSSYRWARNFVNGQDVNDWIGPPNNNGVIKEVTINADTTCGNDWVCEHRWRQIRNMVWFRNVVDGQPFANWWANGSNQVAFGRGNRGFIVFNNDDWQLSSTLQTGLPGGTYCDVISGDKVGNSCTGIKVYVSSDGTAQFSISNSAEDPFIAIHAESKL

ct-DNA [1] = assay: Spectrophotometric; format: binding, calf; conditions: ligand fixed 50 µM, ct-DNA 0–80 µM, phosphate buffer pH 7.2
EB-ct-DNA = assay: Ethidium bromide displacement fluorescence quenching with ct-DNA; format: binding, calf
ct-DNA [2] = assay: Cyclic voltammetry of ligands with ct-DNA; format: binding, calf; conditions: increasing ct-DNA 10–80 µM, phosphate buffer pH 7.2

α-glucosidase, sequence (P53341 whole entry): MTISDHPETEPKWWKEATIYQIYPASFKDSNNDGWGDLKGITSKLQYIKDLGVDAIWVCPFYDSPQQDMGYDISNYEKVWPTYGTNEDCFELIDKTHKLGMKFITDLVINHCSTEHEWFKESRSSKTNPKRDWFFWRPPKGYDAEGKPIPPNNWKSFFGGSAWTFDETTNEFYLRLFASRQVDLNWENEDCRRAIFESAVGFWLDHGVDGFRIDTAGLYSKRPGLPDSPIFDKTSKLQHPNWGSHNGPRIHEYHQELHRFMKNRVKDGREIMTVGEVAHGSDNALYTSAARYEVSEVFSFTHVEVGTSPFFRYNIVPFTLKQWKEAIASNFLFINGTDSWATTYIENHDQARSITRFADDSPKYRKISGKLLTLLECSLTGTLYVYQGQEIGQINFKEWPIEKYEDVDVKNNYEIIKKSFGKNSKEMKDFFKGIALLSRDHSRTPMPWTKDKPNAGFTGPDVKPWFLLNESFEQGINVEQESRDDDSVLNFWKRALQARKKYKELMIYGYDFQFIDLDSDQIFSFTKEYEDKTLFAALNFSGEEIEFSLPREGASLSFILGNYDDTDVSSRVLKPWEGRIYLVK

IC50 (α-glucosidase) [µM]	inhibition at 10 µM (α-glucosidase) [%]	inhibition at 40 µM (α-glucosidase) [%]	inhibition at 100 µM (α-glucosidase) [%]	inhibition at 140 µM (α-glucosidase) [%]	inhibition at 350 µM (α-glucosidase) [%]	inhibition at 400 µM (α-glucosidase) [%]	inhibition at 500 µM (α-glucosidase) [%]	inhibition at 10 µM (α-amylase) [%]	inhibition at 40 µM (α-amylase) [%]	inhibition at 80 µM (α-amylase) [%]	inhibition at 140 µM (α-amylase) [%]	inhibition at 260 µM (α-amylase) [%]	inhibition at 400 µM (α-amylase) [%]	inhibition at 500 µM (α-amylase) [%]	Compound	other results
281	9.36	10.8	21.4	32.4	67	71.5	74.1	9.1	9.5	11	12	16.8	26	28.9	Cc1c(C(=O)C=Cc2cccc([N+](=O)[O-])c2)cnn1-c1ccccc1 [L^III, 1-(5-methyl-1-phenyl-1H-pyrazol-4-yl)-3-(3-nitrophenyl) prop-2-en-1-one]	IC50 (α-amylase; IC50 α-amylase): 984 µM; Binding constant (kb) (ct-DNA [1]): 15590 M⁻¹; Interaction mode (ct-DNA [1]): Intercalative; Quenching constant (Ksv) (EB-ct-DNA; Stern–Volmer): 3030 M⁻¹; Binding constant (Kb) (EB-ct-DNA; modified Stern–Volmer): 4315.8 M⁻¹; Binding mode from cyclic voltammetry (ct-DNA [2]): intercalation
	2.9	9.44	13	16.2	81.2	97.2	97.7	1.2	1.6	6	26.4	39.8	65.1	74.8	C[C@H]1O[C@H](O[C@H]2[C@H](O)[C@@H](O)[C@@H](O[C@H]3[C@H](O)[C@@H](O)C(O)O[C@@H]3CO)O[C@@H]2CO)[C@H](O)[C@@H](O)[C@@H]1N[C@H]1C=C(CO)[C@@H](O)[C@H](O)[C@H]1O (stereo partly shown) [Acarbose, acarbose, reference compound]	
394															Cc1cccc(C=CC(=O)c2cnn(-c3ccccc3)c2C)c1 [L^I, 1-(5-methyl-1-phenyl-1H-pyrazol-4-yl)-3-(m-tolyl)prop-2-en-1-one]	
215															Cc1c(C(=O)C=Cc2ccc(Cl)cc2Cl)cnn1-c1ccccc1 [L^II, 3-(2,4-dichlorophenyl)-1-(5-methyl-1-phenyl-1H-pyrazol-4-yl)prop-2-en-1-one]	
